Experimental data from patent US7812008B2, “9-substituted tetracyclines” (Wyeth LLC, priority 2005, dated 2010).
Converted amounts (≈) assume the structure as drawn. Where two headings read alike, the source gives them in different places.

Legend:
[1] = system: E. coli GC2203 (ATCC Control); assay: MIC broth microdilution, E. coli GC2203 (ATCC Control); format: cell-based; details: MHBII, 18-22 hours at 35° C.
Procedure: (§1) Methods for in Vitro Antibacterial Evaluation
(§2) The minimum inhibitory concentration (MIC)
(§3) Antimicrobial susceptibility testing. The in vitro activities of representative examples of antibiotics of the invention are determined by the broth microdilution method as recommended by the National Committee for Clinical Laboratory Standards (NCCLS) (1). Mueller-Hinton II broth (MHBII)(BBL Cockeysville, Md.) is the medium employed in the testing procedures. Microtiter plates containing serial dilutions of each antimicrobial agent are inoculated with each organism to yield the appropriate density (10^5 CFU/ml) in a 100 μl final volume. The plates are incubated for 18-22 hours at 35° C. in ambient air. […] NCCLS. 2000. Methods for Dilution Antimicrobial Susceptibility Tests for Bacteria That Grow Aerobically; Approved Standards: M7-A5, vol. 20. National Committe for Clinical Laboratory Standards, Wayne, Pa.

[2] = system: S. aureus GC2216 (ATCC Control); assay: MIC broth microdilution, S. aureus GC2216 (ATCC Control); format: cell-based; details: MHBII, 18-22 hours at 35° C.
Procedure: as §1, §2, §3

[3] = system: E. coli GC4560 (IMP mutant); assay: MIC broth microdilution, E. coli GC4560 (IMP mutant); format: cell-based; details: MHBII, 18-22 hours at 35° C.
Procedure: as §1, §2, §3

[4] = system: C. albicans GC3066 ATCC (Control); assay: MIC broth microdilution, C. albicans GC3066 ATCC (Control); format: cell-based; details: 18-22 hours at 35° C.
Procedure: as §1, §2, §3

[5] = system: M. catarrhalis* GC6907 (Clinical); assay: MIC broth microdilution, M. catarrhalis GC6907 (Clinical); format: cell-based; details: 18-22 hours at 35° C.
Procedure: as §1, §2, §3

[6] = system: E. coli GC4559 (parent GC4560); assay: MIC broth microdilution, E. coli GC4559 (parent GC4560); format: cell-based; details: MHBII, 18-22 hours at 35° C.
Procedure: as §1, §2, §3

[7] = system: E. coli GC2270 (tet(M)); assay: MIC broth microdilution, E. coli GC2270 (tet(M)); format: cell-based; details: MHBII, 18-22 hours at 35° C.
Procedure: as §1, §2, §3

[8] = system: Staphylococcal aureus Smith M P; assay: MIC reported in Table 2 beside the in vivo ED50; format: cell-based; details: Staphylococcus aureus, infecting strain S. aureus Smith MP
Procedure: Antimicrobial susceptibility testing. The in vitro activities of representative examples of antibiotics of the invention are determined by the broth microdilution method as recommended by the National Committee for Clinical Laboratory Standards (NCCLS) (1). Mueller-Hinton II broth (MHBII)(BBL Cockeysville, Md.) is the medium employed in the testing procedures. Microtiter plates containing serial dilutions of each antimicrobial agent are inoculated with each organism to yield the appropriate density (10^5 CFU/ml) in a 100 μl final volume. The plates are incubated for 18-22 hours at 35° C. in ambient air. […] NCCLS. 2000. Methods for Dilution Antimicrobial Susceptibility Tests for Bacteria That Grow Aerobically; Approved Standards: M7-A5, vol. 20. National Committe for Clinical Laboratory Standards, Wayne, Pa. In Vivo Antibacterial Evaluation: The therapeutic effects of representative examples of the invention are determined against acute lethal infection with Staphylococcal aureus Smith M P, Female mice, strain CD-1 (Charles River Laboratoties), ca. 20 grams, are challenged by an intraperitoneal injection of sufficient bacteria (suspended in broth or hog mucin) to kill non-treated controls within 24-28 hours. Antibacterial agents, contained in 0.5 ml of 0.2% aqueous agar, are administered subcutaneously or orally 30 minutes after injection. When an oral dosing schedule is used, animal are deprived of food for 5 hours before and 2 hours after injection. Five mice are treated at each dose level. The 7 day survival ratios from 3 separate tests are pooled for calculation of median effective dose (ED50).

[9] = system: S. aureus GC1131 (Clinical); assay: MIC broth microdilution, S. aureus GC1131 (Clinical); format: cell-based; details: MHBII, 18-22 hours at 35° C.
Procedure: as §1, §2, §3

[10] = system: Staphylococcal aureus Smith M P; assay: In vivo antibacterial evaluation, acute lethal infection in mice; details: Mus musculus, iv, 168 h; single intraveneous dose; female CD-1 mice; 7 day survival ratios, 3 tests pooled; read-out: SIV* ED50
[11] = system: S. pyogenes* GC4563 (Clinical); assay: MIC broth microdilution, S. pyogenes GC4563 (Clinical); format: cell-based; details: 18-22 hours at 35° C.
Procedure: as §1, §2, §3

[12] = system: E. faecalis GC2267 (tet(L) + (M) + (S)); assay: MIC broth microdilution, E. faecalis GC2267 (tet(L) + (M) + (S)); format: cell-based; details: MHBII, 18-22 hours at 35° C.
Procedure: as §1, §2, §3

[13] = system: Staphylococcal aureus Smith M P; assay: In vivo antibacterial evaluation, acute lethal infection in mice; details: Mus musculus; single oral dose 30 minutes after intraperitoneal challenge; female CD-1 mice; 7 day survival ratios, 3 tests pooled; read-out: SOD* ED50
Procedure: In Vivo Antibacterial Evaluation: The therapeutic effects of representative examples of the invention are determined against acute lethal infection with Staphylococcal aureus Smith M P, Female mice, strain CD-1 (Charles River Laboratoties), ca. 20 grams, are challenged by an intraperitoneal injection of sufficient bacteria (suspended in broth or hog mucin) to kill non-treated controls within 24-28 hours. Antibacterial agents, contained in 0.5 ml of 0.2% aqueous agar, are administered subcutaneously or orally 30 minutes after injection. When an oral dosing schedule is used, animal are deprived of food for 5 hours before and 2 hours after injection. Five mice are treated at each dose level. The 7 day survival ratios from 3 separate tests are pooled for calculation of median effective dose (ED50).

[14] = system: S. pneumoniae* GC1894 (Clinical); assay: MIC broth microdilution, S. pneumoniae GC1894 (Clinical); format: cell-based; details: 18-22 hours at 35° C.
Procedure: as §1, §2, §3

[15] = system: S. pneumoniae* GC4465 (Clinical); assay: MIC broth microdilution, S. pneumoniae GC4465 (Clinical); format: cell-based; details: 18-22 hours at 35° C.
Procedure: as §1, §2, §3

[16] = system: S. aureus GC4536 (Smith MP -In Vivo); assay: MIC broth microdilution, S. aureus GC4536 (Smith MP -In Vivo); format: cell-based; details: MHBII, 18-22 hours at 35° C.
Procedure: as §1, §2, §3

[17] = system: S. aureus GC6466 (tet(M)); assay: MIC broth microdilution, S. aureus GC6466 (tet(M)); format: cell-based; details: MHBII, 18-22 hours at 35° C.
Procedure: as §1, §2, §3

[18] = system: E. faecalis GC4555 (ATCC Control); assay: MIC broth microdilution, E. faecalis GC4555 (ATCC Control); format: cell-based; details: MHBII, 18-22 hours at 35° C.
Procedure: as §1, §2, §3

[19] = system: S. aureus GC1079 (tet(K)); assay: MIC broth microdilution, S. aureus GC1079 (tet(K)); format: cell-based; details: MHBII, 18-22 hours at 35° C.
Procedure: as §1, §2, §3

[20] = system: H. influenzae<> GC6896 (ATCC Control); assay: MIC broth microdilution, H. influenzae GC6896 (ATCC Control); format: cell-based; details: 18-22 hours at 35° C.
Procedure: as §1, §2, §3

[21] = system: E. faecalis GC2242 (Van-resistant); assay: MIC broth microdilution, E. faecalis GC2242 (Van-resistant); format: cell-based; details: MHBII, 18-22 hours at 35° C.
Procedure: as §1, §2, §3

[22] = system: E. coli GC1073 (tet(B)); assay: MIC broth microdilution, E. coli GC1073 (tet(B)); format: cell-based; details: MHBII, 18-22 hours at 35° C.
Procedure: as §1, §2, §3

[23] = system: S. aureus GC6467 (tet(M) + (K)); assay: MIC broth microdilution, S. aureus GC6467 (tet(M) + (K)); format: cell-based; details: MHBII, 18-22 hours at 35° C.
Procedure: as §1, §2, §3

CC(C)N(O)CC(=O)Nc1cc(N(C)C)c2c(c1O)C(=O)C1=C(O)[C@]3(O)C(=O)C(C(N)=O)=C(O)[C@@H](N(C)C)[C@@H]3C[C@@H]1C2 [Example 2, (4S,4aS,5aR,12aS)-4,7-bis(dimethylamino)-3,10,12,12a-tetrahydroxy-9-[(N-hydroxy-N-isopropylglycyl)amino]-1,11-dioxo-1,4,4a,5,5a,6,11,12a-octahydrotetracene-2-carboxamide]
minimum inhibitory concentration (MIC) [1]: 2
minimum inhibitory concentration (MIC) [2]: 2
minimum inhibitory concentration (MIC) [3]: 0.25
minimum inhibitory concentration (MIC) [4]: >64
minimum inhibitory concentration (MIC) [5]: 1
minimum inhibitory concentration (MIC) [6]: 8
minimum inhibitory concentration (MIC) [7]: 4
MIC [8]: 1 µg/mL (≈ 1.7 µM)
minimum inhibitory concentration (MIC) [9]: 4
ED50 [10]: 0.25 to 0.5 mg/kg
minimum inhibitory concentration (MIC) [11]: 0.25
minimum inhibitory concentration (MIC) [12]: 4
ED50 [13]: 18 mg/kg
minimum inhibitory concentration (MIC) [14]: 0.25
minimum inhibitory concentration (MIC) [15]: 0.25
minimum inhibitory concentration (MIC) [16]: 4
minimum inhibitory concentration (MIC) [17]: 4
minimum inhibitory concentration (MIC) [18]: 1
minimum inhibitory concentration (MIC) [19]: 8
minimum inhibitory concentration (MIC) [20]: 2
minimum inhibitory concentration (MIC) [21]: 2
minimum inhibitory concentration (MIC) [22]: 16
minimum inhibitory concentration (MIC) [23]: 16

CONCC(=O)Nc1cc(N(C)C)c2c(c1O)C(=O)C1=C(O)[C@]3(O)C(=O)C(C(N)=O)=C(O)[C@@H](N(C)C)[C@@H]3C[C@@H]1C2 [Example 5, (4S,4aS,5aR,12aS)-4,7-bis(dimethylamino)-3,10,12,12a-tetrahydroxy-9-[(N-methoxyglycyl)amino]-1,11-dioxo-1,4,4a,5,5a,6,11,12a-octahydrotetracene-2-carboxamide]
minimum inhibitory concentration (MIC) [1]: 2
minimum inhibitory concentration (MIC) [2]: 1
minimum inhibitory concentration (MIC) [3]: 0.25
minimum inhibitory concentration (MIC) [4]: >64
minimum inhibitory concentration (MIC) [5]: 0.25
minimum inhibitory concentration (MIC) [6]: 4
minimum inhibitory concentration (MIC) [7]: 4
MIC [8]: 1 µg/mL (≈ 1.79 µM)
minimum inhibitory concentration (MIC) [9]: 1
ED50 [10]: 0.5 to 1 mg/kg
minimum inhibitory concentration (MIC) [11]: 0.25
minimum inhibitory concentration (MIC) [12]: 4
ED50 [13]: 16 to 32 mg/kg
minimum inhibitory concentration (MIC) [14]: 0.25
minimum inhibitory concentration (MIC) [15]: 0.12
minimum inhibitory concentration (MIC) [16]: 1
minimum inhibitory concentration (MIC) [17]: 1
minimum inhibitory concentration (MIC) [18]: 1
minimum inhibitory concentration (MIC) [19]: 2
minimum inhibitory concentration (MIC) [20]: 2
minimum inhibitory concentration (MIC) [21]: 2
minimum inhibitory concentration (MIC) [22]: 4
minimum inhibitory concentration (MIC) [23]: 4

CN(C)c1cc(NC(=O)CN(O)C2CCCCC2)c(O)c2c1C[C@H]1C[C@H]3[C@H](N(C)C)C(O)=C(C(N)=O)C(=O)[C@@]3(O)C(O)=C1C2=O [Example 1, (4S,4aS,5aR,12aS)-9-[(N-cyclohexyl-N-hydroxyglycyl)amino]-4,7-bis(dimethylamino)-3,10,12,12a-tetrahydroxy-1,11-dioxo-1,4,4a,5,5a,6,11,12a-octahydrotetracene-2-carboxamide]
minimum inhibitory concentration (MIC) [1]: 2
minimum inhibitory concentration (MIC) [2]: 4
minimum inhibitory concentration (MIC) [3]: 0.25
minimum inhibitory concentration (MIC) [4]: >64
minimum inhibitory concentration (MIC) [5]: 0.50
minimum inhibitory concentration (MIC) [6]: 8
minimum inhibitory concentration (MIC) [7]: 8
MIC [8]: 1 µg/mL (≈ 1.59 µM)
minimum inhibitory concentration (MIC) [9]: 4
ED50 [10]: 1.56 mg/kg
minimum inhibitory concentration (MIC) [11]: 0.12
minimum inhibitory concentration (MIC) [12]: 16
ED50 [13]: 7.75 mg/kg
minimum inhibitory concentration (MIC) [14]: 0.25
minimum inhibitory concentration (MIC) [15]: 0.25
minimum inhibitory concentration (MIC) [16]: 4
minimum inhibitory concentration (MIC) [17]: 8
minimum inhibitory concentration (MIC) [18]: 1
minimum inhibitory concentration (MIC) [19]: 16
minimum inhibitory concentration (MIC) [20]: 2
minimum inhibitory concentration (MIC) [21]: 2
minimum inhibitory concentration (MIC) [22]: 16
minimum inhibitory concentration (MIC) [23]: >64

CN(C)c1cc(NC(=O)CNOC(C)(C)C)c(O)c2c1C[C@H]1C[C@H]3[C@H](N(C)C)C(O)=C(C(N)=O)C(=O)[C@@]3(O)C(O)=C1C2=O [Example 4, (4S,4aS,5aR,12aS)-9-{[N-(tert-butoxy)glycyl]amino}-4,7-bis(dimethylamino)-3,10,12,12a-tetrahydroxy-1,11-dioxo-1,4,4a,5,5a,6,11,12a-octahydrotetracene-2-carboxamide]
minimum inhibitory concentration (MIC) [1]: 8
minimum inhibitory concentration (MIC) [2]: 1
minimum inhibitory concentration (MIC) [3]: 0.50
minimum inhibitory concentration (MIC) [4]: >64
minimum inhibitory concentration (MIC) [5]: 0.50
minimum inhibitory concentration (MIC) [6]: 16
minimum inhibitory concentration (MIC) [7]: 8
MIC [8]: 4 µg/mL (≈ 6.65 µM)
minimum inhibitory concentration (MIC) [9]: 1
ED50 [10]: 0.25 to 1 mg/kg
minimum inhibitory concentration (MIC) [11]: 0.12
minimum inhibitory concentration (MIC) [12]: 8
ED50 [13]: 1.1 mg/kg
minimum inhibitory concentration (MIC) [14]: 0.25
minimum inhibitory concentration (MIC) [15]: 0.25
minimum inhibitory concentration (MIC) [16]: 1
minimum inhibitory concentration (MIC) [17]: 1
minimum inhibitory concentration (MIC) [18]: 1
minimum inhibitory concentration (MIC) [19]: 16
minimum inhibitory concentration (MIC) [20]: 2
minimum inhibitory concentration (MIC) [21]: 1
minimum inhibitory concentration (MIC) [22]: 16
minimum inhibitory concentration (MIC) [23]: >64
